From patent US20070093410A1, “Selective inhibition of proteasomes of tuberculosis and other bacteria” (President and Fellows of Harvard College, priority 2004, published 2007)
Non-standard residues stand in square brackets, D forms with d. Residues, ends and D or L forms follow the SMILES beside them. No end group written: not given here. *: point of attachment. Biotin = O=C1N[C@H]2[C@H](CS[C@H]2CCCCC(=O)*)N1; Nle = CCCC[C@H](N)C(=O)O; Cbz = O=C(OCc1ccccc1)*

Assays:
bKKQ10KK (SEQ ID NO:8) = system: T1, bKKQ10KK (SEQ ID NO:8)
T1 sequence: KKQQQQQQQQQQKK

bKKQ20KK (SEQ ID NO:9) = system: T2, bKKQ20KK (SEQ ID NO:9)
T2 sequence: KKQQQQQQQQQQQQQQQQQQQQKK

rabbit 26S proteasomes = assay: Peptide cleavage by 26S proteasomes (new amino groups, fluorescamine assay); format: biochemical; settings: 35 μM peptide, FIG. 2
Experimental: FIG. 2 graphically depicts rapid cleavage of the flanking RRGRR (SEQ ID NO:6) in Q20RRGRR (SEQ ID NO:7) by eukaryotic proteasomes. 35 μM of each of the following peptides bKKQ10KK (SEQ ID NO:8), bKKQ20KK (SEQ ID NO:9), N-extended-KK-Q20-KK (SEQ ID NO:10), Q20RRGRR (SEQ ID NO:7) and a control 20-mer peptide […] (SEQ ID NO:12), lacking any repeat sequence were incubated with 7.2 μg of rabbit 26S particles in a total volume of 40 μl. New amino groups formed were assayed.
Although 26S proteasomes cleaved these polyQ peptides slowly and only after the initial Q residues, they cleaved a Q20 (SEQ ID NO: 30) sequence with RRGRR (SEQ ID NO:6) at its C-terminus 5 to 6-fold faster than other polyQ peptides (FIG. 2) studied and at similar rates to the 20-mer control peptide (though not as fast as YGGFLRRIRPKLK (SEQ ID NO:29), a 13-mer which is cleaved at least 2 times faster).
For 20S proteasomes, 20 mM Hepes (pH 7.5) containing 1 mM dithiothreitol (DTT) was used. For reactions with 26S proteasomes, the buffer also contained 0.5 mM ATP and 2.5 mM MgCl2. All reactions were performed at 37° C. 5 μl aliquots were withdrawn at different times, 50 μl of 0.2M sodium phosphate (pH 6.8) was added and then mixed vigorously with 50 μl fluorescamine for 3 minutes. The reaction was terminated with 0.4 ml of ice-cold water and fluorescence read at 380 nm excitation and 470 nm emission.

[1] = system: SDS-activated 20S mammalian proteasomes; assay: Inhibition of individual active sites of SDS-activated 20S mammalian proteasomes, fluorogenic substrates specific for each active site; format: biochemical, rabbit; settings: sites other than the one the inhibitor is specific for; FIG. 1C
Experimental: (§1) FIGS. 1A-1D depict hydrolysis of bKKQ10KK (SEQ ID NO:5) by the trypsin-like active site of the eukaryotic proteasome. A) 80 μM bKKQ10KK (SEQ ID NO:5) was incubated with mammalian (rabbit) 20S proteasomes with or without PA28αβ, 0.02% SDS. B) 35 μM bKKQ10KK (SEQ ID NO:5) was incubated with yeast wild type and ‘open-gate’ (α3ΔN) proteasomes. C) Mammalian 20S proteasomes were treated with inhibitors specific to each active site. D) After inactivation, the proteasomes were further incubated with bKKQ10KK (SEQ ID NO:5).
(§2) To identify which active site of the proteasome cleaved after bKKQ, inhibitors that selectively block the individual active sites were used. SDS-activated 20S mammalian proteasomes were treated with the irreversible inhibitors, 4-hydroxy-5-iodo-3-nitrophenylacetyl-Leu-Leu-vinyl sulfone (NLVS); (Bogyo et al., supra, incorporated herein by reference in its entirety for all purposes), which is specific for the chymotrypsin-like site; Acetyl-Tyr-Arg-Leu-Asn-vinyl sulfone (SEQ ID NO:20) (Ac-YRLN-VS), which reacts primarily with the trypsin-like site (Nazif et al. (2001) Proc. Natl. Acad. Sci. USA 98:2967, incorporated herein by reference in its entirety for all purposes); or with the reversible inhibitor of the caspase-like site, Z-Pro-norLeu-Asp-aldehyde (Z-PnLD-CHO) (Kisselev et al. (2003) supra, incorporated herein by reference in its entirety for all purposes). The extent of inhibition of the different sites was assayed using fluorogenic substrates specific for each active site. […] After inactivation of each type of active site, the proteasomes were incubated with bKKQ10KK. […] Thus, cleavage after bKKQ was due to the activity of the trypsin-like site, presumably because of the two-lysine residues preceding the initial Q residue.

[2] = system: SDS-activated 20S mammalian proteasomes; assay: bKKQ10KK cleavage by 20S mammalian proteasomes after inactivation of each type of active site; format: biochemical, rabbit; settings: proteasomes pre-treated with inhibitor, then incubated with bKKQ10KK; FIG. 1D
Experimental: as §1, §2
For 20S proteasomes, 20 mM Hepes (pH 7.5) containing 1 mM dithiothreitol (DTT) was used. For reactions with 26S proteasomes, the buffer also contained 0.5 mM ATP and 2.5 mM MgCl2. All reactions were performed at 37° C. […] The reaction was terminated with 0.4 ml of ice-cold water and fluorescence read at 380 nm excitation and 470 nm emission. […]

[3] = system: T3, Acetyl-Tyr-Arg-Leu-Asn-vinyl sulfone (SEQ ID NO:20)
T3 sequence: YRLN

[4] = system: bovine PA 28alpha-beta (Boston Biochem, Inc.)
[5] = target: T4, archaebacterial 'open-gate' 20S proteasomes (Thermoplasma acidophilum, UniProt P28061); assay: Hydrolysis of bKKQ20KK by archaebacterial 'open-gate' 20S proteasomes, effect of proteasome inhibitor; format: biochemical; settings: 37° C.
T4 sequence (P28061 9-211): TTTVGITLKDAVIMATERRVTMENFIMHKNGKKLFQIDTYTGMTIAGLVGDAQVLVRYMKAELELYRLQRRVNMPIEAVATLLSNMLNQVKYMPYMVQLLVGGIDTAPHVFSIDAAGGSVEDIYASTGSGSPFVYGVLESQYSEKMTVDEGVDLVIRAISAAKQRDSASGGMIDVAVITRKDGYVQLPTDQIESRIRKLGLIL
Experimental: (§3) FIGS. 4A-4B depict multiple cleavages within the polyQ sequence by archaebacterial proteasomes. A) bKKQ20KK (SEQ ID NO:9) (25 μM) was incubated with 0.6 μg of yeast or 250 ng of archaebacterial ‘open-gate’ 20S particles in a total volume of 50 μl. B) Products generated by the archaebacterial proteasomes were analyzed by MALDI-TOF.
(§4) 20S proteasomes of archaebacteria, e.g., Thermoplasma acidophilum, contain 14 identical active sites, which, though originally classified as “chymotrypsin-like” (Dahlmann et al. (1991) Biomed. Biochim. Acta 50:465, incorporated herein by reference in its entirety for all purposes), were later shown to cleave also after basic and acidic residues (Akopian et al., supra). These “less-specific” active sites were tested to determine if they could degrade within a polyQ sequence. […] It was determined that mutant archaebacterial proteasomes lacking this gate (Δ7α) (Benaroudj et al., supra, incorporated herein by reference in its entirety for all purposes) cleaved polyQ peptides and control peptides at least 17 fold faster than the wild-type particles. […]
(§5) For 20S proteasomes, 20 mM Hepes (pH 7.5) containing 1 mM dithiothreitol (DTT) was used. […] The reaction was terminated with 0.4 ml of ice-cold water and fluorescence read at 380 nm excitation and 470 nm emission.

[6] = target: T4, archaebacterial 'open-gate' 20S proteasomes; assay: Cleavage of polyQ peptides by archaebacterial 'open-gate' (Δ7α) 20S proteasomes; format: biochemical; settings: half the concentration of the yeast particles, 37° C.
Experimental: as §3, §4, §5

eukaryotic proteasomes = assay: Competitive inhibition of hydrolysis of standard fluorogenic substrates by eukaryotic proteasomes; format: biochemical
From the text: In contrast to eukaryotic proteasomes, the ancestral particles from the archaebacterium T. acidophilum digested polyQ peptides very rapidly and degraded completely the myoglobin-polyQ fusion protein. Unlike the eukaryotic homologs, these prokaryotic proteasomes contain 14 identical active sites of broad specificity. […] The data presented herein indicate that the trypsin-like sites can cleave after a P1 glutamine if the preceding residue at P2 is a lysine and at P3 a αN-blocked lysine. […] Thus, their failure to degrade polyQ-sequences is due to the inability of their active sites to bind the polyQ repeat, not to the proteasome's unique catalytic mechanism, which is similar in eukaryotic and archaebacterial particles.

yeast 20S proteasomes = assay: Hydrolysis of bKKQ10KK by yeast wild type and 'open-gate' (α3ΔN) 20S proteasomes; format: biochemical; settings: 35 μM bKKQ10KK; FIG. 1B
Experimental: as §1
To test whether 20S proteasomes could cleave within a polyQ sequence, a peptide containing 10 Q-residues flanked at each end by two lysine residues to enhance solubility (bKKQ10KK) (SEQ ID NO:8) and biotin on the α amino group was initially used as a substrate. […] Similarly, a mutant form (α3ΔN) of the yeast proteasome with an N-terminal deletion in the α3 subunit, which causes ‘gate-opening’, hydrolyzed bKKQ10KK (SEQ ID NO:8), approximately ten-fold faster than the wild-type (FIG. 1B). Thus, entry of this peptide and its cleavage depends on the presence of an ‘open-gate’ in the α-ring. […]
as §5

archaebacterial 'open-gate' 20S proteasomes (delta7alpha) of Thermoplasma acidophilum
rate of peptide cleavage against yeast 'open-gate' 20S proteasomes, 37° C. (bKKQ10KK (SEQ ID NO:8)): cleaved both bKKQ10KK (SEQ ID NO:8) and bKKQ20KK (SEQ ID NO:9) at least 70 times faster than the yeast ‘open-gate’ 20S proteasomes | rate of peptide cleavage against yeast 'open-gate' 20S proteasomes, 37° C. (bKKQ20KK (SEQ ID NO:9)): cleaved both bKKQ10KK (SEQ ID NO:8) and bKKQ20KK (SEQ ID NO:9) at least 70 times faster than the yeast ‘open-gate’ 20S proteasomes

Q20RRGRR: Q20 sequence with RRGRR at its C-terminus (SEQ ID NO:7) (QQQQQQQQQQQQQQQQQQQQRRGRR; Peptide generated by solid-phase peptide synthesis)
cleavage rate relative to other polyQ peptides (rabbit 26S proteasomes): 5 to 6 fold

Acetyl-Tyr-Arg-Leu-Asn-vinyl sulfone (Ac-YRLN-{vinyl sulfone}) [Ac-YRLN-VS]
effect on the other two peptidase activities [1]: without significantly affecting the other two | reduction of bKKQ10KK cleavage [2]: about 70%

rabbit 20S proteasomes
decrease in the individual peptidase activities (fluorogenic substrates specific for each active site) [3]: Each inhibitor caused an 85%-95% decrease in the individual peptidase activities without significantly affecting the other two | reduction of bKKQ10KK cleavage [3]: Treatment with Ac-YRLN-VS (SEQ ID NO:20) reduced bKKQ10KK (SEQ ID NO:8) cleavage by about 70% | hydrolysis of bKKQ10KK and of standard fluorogenic peptide substrates [4]: Rabbit 20S proteasomes, when purified in their latent state, were inactive against bKKQ10KK (SEQ ID NO:8) (FIG. 1A) or against standard fluorogenic peptide substrates, unless PA28αβ, or 0.02% SDS was added

CC(C)C[C@@H](C=O)NC(=O)[C@H](CC(C)C)NC(=O)[C@H](CC(C)C)NC(=O)OCc1ccccc1 [MG132] (Cbz-Leu-Leu-Leu-aldehyde)
inhibition of bKKQ20KK hydrolysis [5]: inhibited this process

bKKQ20KK: Q20 sequence flanked by two lysine residues on each end and biotin on the α amino group (SEQ ID NO:9) (Biotin-KKQQQQQQQQQQQQQQQQQQQQKK)
time to complete consumption of the peptide [6]: ≤ 45 min

bKKQ10KK: peptide containing 10 Q-residues flanked at each end by two lysine residues, biotin on the α amino group (SEQ ID NO:8) (Biotin-KKQQQQQQQQQQKK)
competitive inhibition of hydrolysis of standard fluorogenic substrates (eukaryotic proteasomes): could not competitively inhibit | hydrolysis rate by α3ΔN mutant relative to wild-type yeast proteasome (yeast 20S proteasomes): approximately ten-fold

CCCC[C@H](NC(=O)[C@@H]1CCCN1C(=O)OCc1ccccc1)C(=O)N[C@H](C=O)CC(=O)O [Z-PnLD-CHO, Z-Pro-norLeu-Asp-aldehyde] (Cbz-Pro-[Nle]-Asp-aldehyde)
effect on the other two peptidase activities [1]: without significantly affecting the other two | reduction of bKKQ10KK cleavage [2]: no significant effect

4-hydroxy-5-iodo-3-nitrophenylacetyl-Leu-Leu-vinyl sulfone [NLVS]
effect on the other two peptidase activities [1]: without significantly affecting the other two | reduction of bKKQ10KK cleavage [2]: no significant effect
